Laboratory results: US5202315A, “Cephalosporin compounds” (Lucky, Ltd., priority 1989, dated 1993)
≈ marks a conversion by molar mass, not a printed value.

What was measured:
Assay in all cases: Antibacterial activity, MIC
Format in all cases: cell-based
[1] = test system: Acinetobacter calcoaceticus ATCC 15473; conditions: ATCC15473, ATCC 15473, agar two-fold dilution, 37° C., 20 hours, read-out: MIC
Description: (§1) Also, the in vitro antibacterial activity was determined by the by a two-fold dilution method as described below:
(§2) That is, the two-fold serial dilutions of the compound were made dispersed in Muller-Hinton agar medium. 2 μl of standard test strain which had the 10^7 CFU per ml was inoculated on the medium, and was incubated at 37° C. for 20 hours.

[2] = test system: Bacillus cereus ATCC 11778; conditions: ATCC11778, ATCC 11778, agar two-fold dilution, 37° C., 20 hours, read-out: MIC
Description: as §1, §2

[3] = test system: Bacillus megaterium ATCC 9885; conditions: Priestia megaterium, ATCC9885; ATCC 9885; agar two-fold dilution, 37° C., 20 hours; read-out: MIC
Description: as §1, §2

[4] = test system: Citrobacter freundii ATCC 8090; conditions: ATCC8090, ATCC 8090, agar two-fold dilution, 37° C., 20 hours, read-out: MIC
Description: as §1, §2

[5] = test system: Enterobacter aerogenes ATCC 29751; conditions: Klebsiella aerogenes, ATCC29751; ATCC 29751; agar two-fold dilution, 37° C., 20 hours; read-out: MIC
Description: as §1, §2

[6] = test system: Enterobacter cloacae ATCC 27508; conditions: ATCC27508, ATCC 27508, agar two-fold dilution, 37° C., 20 hours, read-out: MIC
Description: as §1, §2

[7] = test system: Escherichia coli ATCC 10536; conditions: ATCC10536, agar two-fold dilution, 37° C., 20 hours
Description: as §1, §2

[8] = test system: Escherichia coli ATCC 25922; conditions: ATCC25922, agar two-fold dilution, 37° C., 20 hours
Description: as §1, §2

[9] = test system: Klebsiella pneumoniae ATCC 10031; conditions: ATCC10031, ATCC 10031, agar two-fold dilution, 37° C., 20 hours, read-out: MIC
Description: as §1, §2

[10] = test system: Micrococcus luteus ATCC 9341; conditions: ATCC9341, ATCC 9341, agar two-fold dilution, 37° C., 20 hours, read-out: MIC
Description: as §1, §2

[11] = test system: Morganella morganii ATCC 8076h; conditions: ATCC8076H, agar two-fold dilution, 37° C., 20 hours
Description: as §1, §2

[12] = test system: Proteus mirabilis ATCC 25933; conditions: ATCC25933, ATCC 25933, agar two-fold dilution, 37° C., 20 hours, read-out: MIC
Description: as §1, §2

[13] = test system: Proteus vulgaris ATCC 6059; conditions: ATCC6059, ATCC 6059, agar two-fold dilution, 37° C., 20 hours, read-out: MIC
Description: as §1, §2

[14] = test system: Providencia rettgeri ATCC 9250; conditions: ATCC9250, agar two-fold dilution, 37° C., 20 hours
Description: as §1, §2

[15] = test system: Pseudomonas aeruginosa ATCC 10145; conditions: ATCC10145, ATCC 10145, agar two-fold dilution, 37° C., 20 hours, read-out: MIC
Description: as §1, §2

[16] = test system: Pseudomonas aeruginosa ATCC 25619; conditions: ATCC25619, ATCC 25619, agar two-fold dilution, 37° C., 20 hours, read-out: MIC
Description: as §1, §2

[17] = test system: Pseudomonas aeruginosa ATCC 27853; conditions: ATCC27853, ATCC 27853, agar two-fold dilution, 37° C., 20 hours, read-out: MIC
Description: as §1, §2

[18] = test system: Salmonella typhimurium ATCC 14028; conditions: Salmonella enterica; ATCC 14028; agar two-fold dilution, 37° C., 20 hours; read-out: MIC
Description: as §1, §2

[19] = test system: Serratia marcescens ATCC 27117; conditions: ATCC27117, ATCC 27117, agar two-fold dilution, 37° C., 20 hours, read-out: MIC
Description: as §1, §2

[20] = test system: Shigella flexneri ATCC 11836; conditions: ATCC11836, agar two-fold dilution, 37° C., 20 hours
Description: as §1, §2

[21] = test system: Shigella sonnei ATCC 11060; conditions: ATCC11060, ATCC 11060, agar two-fold dilution, 37° C., 20 hours, read-out: MIC
Description: as §1, §2

[22] = test system: Staphylococcus aureus ATCC 10537; conditions: ATCC10537, ATCC 10537, agar two-fold dilution, 37° C., 20 hours, read-out: MIC
Description: as §1, §2

[23] = test system: Staphylococcus aureus ATCC 6538p; conditions: ATCC6538P, ATCC 6538p, agar two-fold dilution, 37° C., 20 hours, read-out: MIC
Description: as §1, §2

[24] = test system: Staphylococcus epidermidis ATCC 12228; conditions: ATCC12228, ATCC 12228, agar two-fold dilution, 37° C., 20 hours, read-out: MIC
Description: as §1, §2

[25] = test system: Streptococcus faecalis ATCC 29212; conditions: Enterococcus faecalis, ATCC29212; ATCC 29212; agar two-fold dilution, 37° C., 20 hours; read-out: MIC
Description: as §1, §2

| Compound | MIC [1] [µg/mL] | MIC [2] [µg/mL] | MIC [3] [µg/mL] | MIC [4] [µg/mL] | MIC [5] [µg/mL] | MIC [6] [µg/mL] | MIC [7] [µg/mL] | MIC [10] [µg/mL] | MIC [11] [µg/mL] | MIC [12] [µg/mL] | MIC [13] [µg/mL] | MIC [14] [µg/mL] | MIC [15] [µg/mL] | MIC [16] [µg/mL] | MIC [17] [µg/mL] | MIC [18] [µg/mL] | MIC [19] [µg/mL] | MIC [20] [µg/mL] | MIC [21] [µg/mL] | MIC [22] [µg/mL] | further results |
| --- | --- | --- | --- | --- | --- | --- | --- | --- | --- | --- | --- | --- | --- | --- | --- | --- | --- | --- | --- | --- | --- |
| C=CC[n+]1c(N)cc(N)nc1SCC1=C(C(=O)[O-])N2C(=O)C(NC(=O)/C(=N\OC(C)(C)C(=O)O)c3csc(N)n3)C2SC1 (stereo not shown) [Compound I-3] | 4 (≈ 6.16 µM) | 64 (≈ 98.5 µM) | 0.5 (≈ 0.77 µM) | 0.13 (≈ 0.2 µM) | 2 (≈ 3.08 µM) | 0.031 (≈ 0.0477 µM) | 0.13 (≈ 0.2 µM) | 0.25 (≈ 0.385 µM) | ≤ 0.008 | 0.031 (≈ 0.0477 µM) | 0.031 (≈ 0.0477 µM) | ≤ 0.008 | 2 (≈ 3.08 µM) | 1 (≈ 1.54 µM) | 2 (≈ 3.08 µM) | 0.25 (≈ 0.385 µM) | 0.13 (≈ 0.2 µM) | 0.031 (≈ 0.0477 µM) | 0.063 (≈ 0.097 µM) | 2 (≈ 3.08 µM) | MIC [8]: 0.13 µg/mL (≈ 0.2 µM); MIC [9]: 0.063 µg/mL (≈ 0.097 µM); MIC [23]: 4 µg/mL (≈ 6.16 µM); MIC [24]: 2 µg/mL (≈ 3.08 µM); MIC [25]: > 128 µg/mL |
| C=CC[n+]1c(N)cc(N)nc1SCC1=C(C(=O)[O-])N2C(=O)C(NC(=O)/C(=N\OC(C)C(=O)O)c3csc(N)n3)C2SC1 (stereo not shown) [Compound I-6] | 4 (≈ 6.29 µM) | 128 (≈ 201 µM) | 1 (≈ 1.57 µM) | 0.063 (≈ 0.0991 µM) | 1 (≈ 1.57 µM) | 0.016 (≈ 0.0252 µM) | 0.063 (≈ 0.0991 µM) | 0.25 (≈ 0.393 µM) | ≤ 0.008 | 0.031 (≈ 0.0488 µM) | 0.031 (≈ 0.0488 µM) | ≤ 0.008 | 4 (≈ 6.29 µM) | 2 (≈ 3.15 µM) | 2 (≈ 3.15 µM) | 0.25 (≈ 0.393 µM) | 0.13 (≈ 0.204 µM) | 0.031 (≈ 0.0488 µM) | 0.063 (≈ 0.0991 µM) | 2 (≈ 3.15 µM) | MIC [23]: 4 µg/mL (≈ 6.29 µM); MIC [24]: 2 µg/mL (≈ 3.15 µM); MIC [25]: > 128 µg/mL |
| C=CC[n+]1c(N)cc(N)nc1SCC1=C(C(=O)[O-])N2C(=O)C(NC(=O)/C(=N\OCC(=O)O)c3csc(N)n3)C2SC1 (stereo not shown) [Compound I-9] | 8 (≈ 12.9 µM) | 64 (≈ 103 µM) | 0.25 (≈ 0.402 µM) | 0.063 (≈ 0.101 µM) | 1 (≈ 1.61 µM) | ≤ 0.008 | 0.031 (≈ 0.0499 µM) | 0.25 (≈ 0.402 µM) | ≤ 0.008 | 0.031 (≈ 0.0499 µM) | 0.031 (≈ 0.0499 µM) | ≤ 0.008 | 16 (≈ 25.7 µM) | 2 (≈ 3.22 µM) | 4 (≈ 6.43 µM) | 0.13 (≈ 0.209 µM) | 0.063 (≈ 0.101 µM) | 0.031 (≈ 0.0499 µM) | 0.063 (≈ 0.101 µM) | 2 (≈ 3.22 µM) | MIC [8]: 0.031 µg/mL (≈ 0.0499 µM); MIC [9]: 0.031 µg/mL (≈ 0.0499 µM); MIC [23]: 4 µg/mL (≈ 6.43 µM); MIC [24]: 1 µg/mL (≈ 1.61 µM); MIC [25]: > 128 µg/mL |
